Experimental data as given in publication PMC5460289, “Identification of New Shikonin Derivatives as Antitumor Agents Targeting STAT3 SH2 Domain” (Scientific Reports, 2017).

Experiments:
[1] = system: BT-474; test: MTT anti-proliferation assay; assay type: cell-based, human; conditions: Homo sapiens, BT-474, 24 h treatment
Method: (§1) Initial experiments were performed for evaluation of growth inhibition by the new compounds against six human breast cancer cell lines, including MCF-7 (ER+/PR+, HER-2-), BT474 (ER+/PR+, HER-2+), SKBR-3 (ER-/PR-/HER-2+), MDA-MB-436 (ER-/PR-/HER-2-), MDA-MB-231 (ER-/PR-/HER-2-), MDA-MB-468 (ER-/PR-/HER-2-) and non-tumorigenic MCF-10A cells. After 24 h treatment by the obtained compounds, the inhibition was assessed and the IC50 was summarized. […] Subsequently, the inhibition of STAT3 activation by PMM-172 and Stattic was evaluated using a dual-luciferase assay.
(§2) The anti-proliferative activities of the prepared compounds against MCF-7 (ER+/PR+, HER-2-), BT474 (ER+/PR+, HER-2+), SKBR-3 (ER-/PR-/HER-2+), MDA-MB-436 (ER-/PR-/HER-2-), MDA-MB-231 (ER-/PR-/HER-2-), MDA-MB-468 (ER-/PR-/HER-2-) and non-tumorigenic MCF-10A cell lines were evaluated using a standard (MTT)-based colorimetric assay with some modification. Cell lines were grown to log phase in DMEM supplemented with 10% fetal bovine serum. Cell suspensions were prepared and 100 μL/well dispensed into 96-well plates giving 10^4 cells/well. The subsequent incubation was permitted at 37 °C, 5% CO2 atmosphere for 24 h to allow the cells to reattach. Subsequently, cells were treated with the target compounds at increasing concentrations in the presence of 10% FBS for 24 h. Then, cell viability was assessed by the conventional 3-(4, 5-dimethylthiazol-2-yl)-2, 5-diphenyltetrazolium bromide (MTT) reduction assay and carried out strictly according to the manufacturer instructions. The absorbance (OD570) was read on an ELISA reader (Tecan, Austria). In all experiments, three replicate wells were used for each drug concentration. Each assay was carried out for at least three times.

[2] = system: MCF-7; test: MTT anti-proliferation assay; assay type: cell-based, human; conditions: Homo sapiens, MCF7, 24 h treatment
Method: as §1, §2

[3] = system: SKBR-3; test: MTT anti-proliferation assay; assay type: cell-based, human; conditions: Homo sapiens, SK-BR-3, 24 h treatment
Method: as §1, §2

[4] = system: MDA-MB-468; test: MTT anti-proliferation assay; assay type: cell-based, human; conditions: Homo sapiens, MDA-MB-468, 24 h treatment
Method: as §1, §2

[5] = system: MDA-MB-436; test: MTT anti-proliferation assay; assay type: cell-based, human; conditions: Homo sapiens, MDA-MB-436, 24 h treatment
Method: as §1, §2

[6] = system: MDA-MB-231; test: MTT anti-proliferation assay; assay type: cell-based, human; conditions: Homo sapiens, MDA-MB-231, 24 h treatment
Method: as §1, §2

[7] = MTT anti-proliferation assay, non-tumorigenic cells; assay type: cell-based; conditions: human, non-tumorigenic MCF-10A cells, 24 h treatment
Method: as §1, §2

IC50 [1] | IC50 [2] | IC50 [3] | IC50 [4] | IC50 [5] | IC50 [6] | SMILES | CC50 at 24 h [7]
15.6 ± 1.03 µM | 12.1 ± 0.42 µM | 11.5 ± 0.74 µM | 10.6 ± 0.65 µM | 10.1 ± 0.92 µM | 9.17 ± 0.99 µM | CC(C)=CC[C@@H](OC(=O)CSc1nnc(-c2ccccc2)o1)C1=CC(=O)c2c(O)ccc(O)c2C1=O [PMM-158, (R)-1-(5,8-dihydroxy-1,4-dioxo-1,4-dihydronaphthalen-2-yl)-4-methylpent-3-en-1-yl 2-((5-phenyl-1,3,4-oxadiazol-2-yl)thio)acetate] | 92.5 ± 0.27 µM
10.8 ± 0.94 µM | 9.22 ± 0.13 µM | 8.95 ± 0.69 µM | 8.23 ± 1.27 µM | 8.49 ± 0.78 µM | 7.24 ± 0.82 µM | CC(C)=CC[C@@H](OC(=O)CSc1nnc(-c2ccc(F)cc2)o1)C1=CC(=O)c2c(O)ccc(O)c2C1=O [PMM-159, (R)-1-(5,8-dihydroxy-1,4-dioxo-1,4-dihydronaphthalen-2-yl)-4-methylpent-3-en-1-yl 2-((5-(4-fluorophenyl)-1,3,4-oxadiazol-2-yl)thio)acetate] | 89.5 ± 0.99 µM
18.3 ± 1.24 µM | 15.3 ± 0.52 µM | 10.5 ± 0.88 µM | 12.4 ± 0.52 µM | 11.8 ± 0.86 µM | 9.66 ± 1.21 µM | CC(C)=CC[C@@H](OC(=O)CSc1nnc(-c2cccc(F)c2)o1)C1=CC(=O)c2c(O)ccc(O)c2C1=O [PMM-160, (R)-1-(5,8-dihydroxy-1,4-dioxo-1,4-dihydronaphthalen-2-yl)-4-methylpent-3-en-1-yl 2-((5-(3-fluorophenyl)-1,3,4-oxadiazol-2-yl)thio)acetate] | 68.3 ± 0.27 µM
11.1 ± 1.12 µM | 9.81 ± 0.49 µM | 9.29 ± 0.66 µM | 8.97 ± 1.05 µM | 9.55 ± 0.83 µM | 8.58 ± 0.53 µM | CC(C)=CC[C@@H](OC(=O)CSc1nnc(-c2ccccc2F)o1)C1=CC(=O)c2c(O)ccc(O)c2C1=O [PMM-161, (R)-1-(5,8-dihydroxy-1,4-dioxo-1,4-dihydronaphthalen-2-yl)-4-methylpent-3-en-1-yl 2-((5-(2-fluorophenyl)-1,3,4-oxadiazol-2-yl)thio)acetate] | 84.5 ± 0.74 µM
9.54 ± 0.91 µM | 9.01 ± 0.92 µM | 8.03 ± 0.83 µM | 6.85 ± 0.92 µM | 7.28 ± 0.77 µM | 6.14 ± 1.05 µM | CC(C)=CC[C@@H](OC(=O)CSc1nnc(-c2ccc(Cl)cc2)o1)C1=CC(=O)c2c(O)ccc(O)c2C1=O [PMM-162, (R)-1-(5,8-dihydroxy-1,4-dioxo-1,4-dihydronaphthalen-2-yl)-4-methylpent-3-en-1-yl 2-((5-(4-chlorophenyl)-1,3,4-oxadiazol-2-yl)thio)acetate] | 91.9 ± 1.21 µM
7.09 ± 0.65 µM | 5.71 ± 0.52 µM | 4.49 ± 0.58 µM | 3.94 ± 0.73 µM | 4.41 ± 0.55 µM | 3.76 ± 1.02 µM | CC(C)=CC[C@@H](OC(=O)CSc1nnc(-c2ccccc2Cl)o1)C1=CC(=O)c2c(O)ccc(O)c2C1=O [PMM-164, (R)-1-(5,8-dihydroxy-1,4-dioxo-1,4-dihydronaphthalen-2-yl)-4-methylpent-3-en-1-yl 2-((5-(2-chlorophenyl)-1,3,4-oxadiazol-2-yl)thio)acetate] | 74.6 ± 0.55 µM
9.22 ± 0.98 µM | 9.38 ± 0.66 µM | 6.23 ± 0.73 µM | 6.58 ± 0.15 µM | 5.97 ± 0.67 µM | 5.47 ± 1.01 µM | CC(C)=CC[C@@H](OC(=O)CSc1nnc(-c2ccc(Br)cc2)o1)C1=CC(=O)c2c(O)ccc(O)c2C1=O [PMM-165, (R)-1-(5,8-dihydroxy-1,4-dioxo-1,4-dihydronaphthalen-2-yl)-4-methylpent-3-en-1-yl 2-((5-(4-bromophenyl)-1,3,4-oxadiazol-2-yl)thio)acetate] | 83.7 ± 1.28 µM

SMILES | IC50 [1] | IC50 [2] | IC50 [3] | IC50 [4] | IC50 [5] | IC50 [6] | CC50 at 24 h [7]
CC(C)=CC[C@@H](OC(=O)CSc1nnc(-c2cccc(Cl)c2)o1)C1=CC(=O)c2c(O)ccc(O)c2C1=O [PMM-163, (R)-1-(5,8-dihydroxy-1,4-dioxo-1,4-dihydronaphthalen-2-yl)-4-methylpent-3-en-1-yl 2-((5-(3-chlorophenyl)-1,3,4-oxadiazol-2-yl)thio)acetate] | 9.27 ± 0.86 µM | 8.69 ± 0.83 µM | 7.56 ± 0.72 µM | 7.83 ± 0.55 µM | 7.09 ± 0.63 µM | 6.04 ± 0.59 µM | 86.2 ± 0.33 µM
